# Source: article PMC11732138, “Gold complex compounds that inhibit drug-resistant Staphylococcus aureus by targeting thioredoxin reductase” (Frontiers in Antibiotics, 2023)
# Read-outs that look alike come from different tables or passages of the source.
# How the values were obtained:
# S. aureus MW2 [1] = test: Broth microdilution MIC, S. aureus MW2; format: cell-based, Staphylococcus aureus; settings: for MIC: S. aureus MW2 (MRSA), broth microdilution, 18 h
# Method: (§1) In vitro antibiotic susceptibilities were determined using the broth microdilution assay established by the Clinical and Laboratory Standards Institute ([Clinical and Laboratory Standards Institute, 2012]). Broth microdilution assays were carried out with 2 biological replicates, each in triplicate, Mueller–Hinton broth (MHB; BD Biosciences, Franklin Lakes, NJ, USA) with a total assay volume of 100 μL in 96-well plates (BD Biosciences, Franklin Lakes, NJ, USA). Two-fold serial dilutions of compounds were prepared at a range of 0.01– 64 μg/mL in 50 μL of MHB. The initial bacterial inoculum was adjusted to OD600 0.06, 50 μL was, added to the test compounds, and then incubated at 35°C for 18 h. Post incubation, OD600 was measured using a Vmax microplate reader (Molecular Devices, San Jose, CA), and the lowest concentration of test compound that suppressed bacterial growth was reported as the MIC. Broth culture from the MIC assay (10 μL) was plated on Mueller–Hinton agar (BD Biosciences, Franklin Lakes, NJ, USA), and colony-forming units (CFUs) were enumerated after overnight incubation at 37°C.
# S. aureus TrxR = S. aureus TrxR (Staphylococcus aureus, UniProt P66011); test: TrxR (TrxB) enzymatic assay, DTNB to TNB conversion; settings: for TrxR enzymatic inhibitory activity (in words): DTNB to TNB conversion
# Sequence of S. aureus TrxR (P66011 whole entry): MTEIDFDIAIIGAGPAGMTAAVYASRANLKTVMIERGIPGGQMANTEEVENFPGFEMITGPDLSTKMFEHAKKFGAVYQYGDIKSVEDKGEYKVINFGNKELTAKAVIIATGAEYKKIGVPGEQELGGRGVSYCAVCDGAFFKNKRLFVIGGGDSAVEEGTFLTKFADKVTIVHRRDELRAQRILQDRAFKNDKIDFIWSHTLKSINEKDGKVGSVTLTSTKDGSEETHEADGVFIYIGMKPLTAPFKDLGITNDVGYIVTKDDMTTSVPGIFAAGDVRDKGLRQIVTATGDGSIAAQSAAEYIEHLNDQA
# Method: TrxR specific inhibitory activity was evaluated using 40 μL of S. aureus TrxR enzyme (0.5 μg/μL) per 200 mL of the reaction mixture for 15 minutes, comparing auranofin to other sulfur-containing compounds (all tested at 10 μg/mL), including known anti-S. aureus compounds.
# For the screening assay, diluted TrxR assay buffer (Cayman Chemical, Ann Arbor, MI) (100 μL) was mixed with the investigational compounds (20 μL) in a 96 well-plate format and combined with Sa-TrxB (40 μL; 0.5 μg/mL), DTNB (20 μL) and NADPH (20 μL). The reaction entailed combining NADPH and Sa-TrxB with DTNB, which was converted to TNB, producing a yellow color.
# [2] = system: intracellular free thiols of S. aureus MW2; test: Thiol depletion assay; format: cell-based, Staphylococcus aureus; settings: treated vs untreated cell lysate
# Method: S. aureus MW2 was treated for 15 min with the indicated (0.125, 0.25, 0.5, or 0.75 µg/mL) concentrations of auranofin, AU1, AU5, or ampicillin. After treatment bacteria were washed twice in PBS and then resuspended in 100 mM potassium phosphate, monobasic, pH 7.4, containing 1 mM ethylenediaminetetraacetic acid to promote lysis. Cells were incubated in the lysis solution for 30 min at 60°C and then vortexed briefly. The solution was centrifuged at 13,000 g for 10 min to collect cell debris. Lysate was collected and 50 μL was transferred to a 96-well plate. Thiols were quantified using the Fluorometric Thiol assay kit following the manufacturer’s instructions (Millipore Sigma, St. Louis, MO, USA). The fluorescence intensity was measured after a 30 min incubation time at λex = 490/λem = 535 nm using a Vmax plate reader.
# S. aureus MW2 [3] = test: Diamide assay (CFU reduction); format: cell-based, Staphylococcus aureus; settings: 3 h
# Method: An overnight culture of S. aureus MW2 was inoculated in tryptic soy broth (TSB) media and grown with agitation. The cells were centrifuged, washed with PBS, and diluted to an OD600 0.4 (10^8 CFU/mL) in PBS. The cells were then treated with auranofin (0.5 µg/mL), AU1 (0.5 µg/mL), AU5 (0.5 µg/mL), and diamide (5 mM and 10 mM) alone or in combinations for 3 h at 37°C. The cells were then serially diluted and plated on tryptic soy agar (TSA) media and incubated at 37°C for 24 h. Colonies that grew on plates were enumerated to determine the effect of the drug and diamide on S. aureus.
# [4] = system: clinical isolates of S. aureus; test: MIC against clinical isolates of S. aureus; format: cell-based; settings: Staphylococcus aureus, read-out: MIC
# Method: Broth microdilution assays were carried out with 2 biological replicates, each in triplicate, Mueller–Hinton broth (MHB; BD Biosciences, Franklin Lakes, NJ, USA) with a total assay volume of 100 μL in 96-well plates (BD Biosciences, Franklin Lakes, NJ, USA). […] The initial bacterial inoculum was adjusted to OD600 0.06, 50 μL was, added to the test compounds, and then incubated at 35°C for 18 h. Post incubation, OD600 was measured using a Vmax microplate reader (Molecular Devices, San Jose, CA), and the lowest concentration of test compound that suppressed bacterial growth was reported as the MIC.
# Isolates were tested as 2 biological replicates.
# [5] = Compound solubility in PBS; format: physicochemical; settings: aqueous buffer, kinetic from dmso stock; PBS, 2 Hour; highest concentration with no detectable precipitate; read-out: Solubility Limit
# Method: Compound solubility in PBS. Compound solubility was measured in PBS. Briefly, serial dilutions of test compounds were prepared in DMSO at 100x the final concentration. Test compound solutions were diluted 100-fold into PBS in a 96-well plate and mixed. After 2 h, the presence of precipitate was detected by measuring absorbance at 540 nm.
# A. baumannii 17978 = test: Broth microdilution MIC, A. baumannii; format: cell-based, Acinetobacter baumannii; settings: Acinetobacter baumannii; A. baumannii 17978; read-out: MIC
# Method: as §1
# P. aeruginosa PA14 = test: Broth microdilution MIC, P. aeruginosa; format: cell-based, Pseudomonas aeruginosa; settings: Pseudomonas aeruginosa; P. aeruginosa PA14; read-out: MIC
# Method: as §1
# K. pneumoniae ATCC 77326 = test: Broth microdilution MIC, K. pneumoniae; format: cell-based, Klebsiella pneumonia; settings: Klebsiella pneumoniae, ATCC77326; K. pneumoniae ATCC 77326; read-out: MIC
# Method: as §1
# Enterobacter (EAE 2625) = test: Broth microdilution MIC, Enterobacter; format: cell-based, Enterobacter spp.; settings: Enterobacter (EAE 2625); read-out: MIC
# Method: as §1
# E. faecium ATCC E007 = test: Broth microdilution MIC, E. faecium; format: cell-based, Enterococcus faecium; settings: Enterococcus faecium, ATCCE007; E. faecium ATCC E007; read-out: MIC
# Method: as §1
smiles,measurement,setting,value
"CC(C)(C)c1ccc(S(=O)O)cc1 [C2, 4-tert-butylbenzenesulfinic acid]",MIC,S. aureus MW2 [1],> 128 µg/mL
CC(C)(C)c1ccc(S(=O)(=O)/C=C/C(N)=O)cc1 [D22],TrxR enzymatic inhibitory activity (in words),S. aureus TrxR,"demonstrated inhibitory activity but required higher concentrations than AU1, AU5, or auranofin"
same,anti-S. aureus activity (in words),S. aureus MW2 [1],not effective S. aureus inhibitors
CC1(C)S[C@@H]2[C@H](NC(=O)[C@H](N)c3ccccc3)C(=O)N2[C@H]1C(=O)O [ampicillin],impact on free thiols (in words),[2],no impact
CN(C)C(=O)/N=N/C(=O)N(C)C [diamide],log CFU reduction,S. aureus MW2 [3]; diamide alone 5 mM,1.5 log CFU
same,log CFU reduction,S. aureus MW2 [3]; diamide alone 10 mM,up to 2.6 log CFU
"CC(C)(C)c1ccc(S)cc1 [C1, 4-tert-butylbenzenethiol]",MIC,S. aureus MW2 [1],> 128 µg/mL
COC(=O)/C=C/S(=O)(=O)c1ccc(C(C)(C)C)cc1 [D25],TrxR enzymatic inhibitory activity (in words),S. aureus TrxR,did not inhibit
same,anti-S. aureus activity (in words),S. aureus MW2 [1],not effective S. aureus inhibitors
Cc1onc(-c2ccccc2)c1C(=O)N[C@@H]1C(=O)N2[C@@H]1SC(C)(C)[C@@H]2C(=O)O [Oxacillin],MIC,[4]; isolate BFSA12,0.5 µg/mL
same,MIC,[4]; isolate BFSA13,1 µg/mL
same,MIC,[4]; isolate BFSA15,0.25 µg/mL
same,MIC,[4]; isolate BFSA16,0.25 µg/mL
same,MIC,[4]; isolate BFSA17,0.125 µg/mL
same,MIC,[4]; isolate BFSA18,0.5 µg/mL
same,MIC,[4]; isolate BFSA19,0.5 µg/mL
same,MIC,[4]; isolate BFSA20,0.5 µg/mL
same,MIC,[4]; isolate BFSA21,0.5 µg/mL
same,MIC,[4]; isolate BFSA22,1 µg/mL
same,MIC,[4]; isolate BFSA24,0.5 µg/mL
same,MIC,[4]; isolate BFSA26,0.25 µg/mL
same,MIC,[4]; isolate BFSA29,> 8 µg/mL
same,MIC,[4]; isolate BFSA30,> 8 µg/mL
same,MIC,[4]; isolate BFSA31,> 8 µg/mL
same,MIC,[4]; isolate BFSA32,> 8 µg/mL
same,MIC,[4]; isolate BFSA33,> 8 µg/mL
same,MIC,[4]; isolate BFSA34,> 8 µg/mL
same,MIC,[4]; isolate BFSA35,> 8 µg/mL
same,MIC,[4]; isolate BFSA36,> 8 µg/mL
same,MIC,[4]; isolate BFSA37,0.25 µg/mL
same,MIC,[4]; isolate BFSA38,0.25 µg/mL
same,MIC,[4]; isolate BFSA39,0.25 µg/mL
same,MIC,[4]; isolate BFSA148,> 8 µg/mL
same,MIC,[4]; isolate BFSA149,> 8 µg/mL
same,MIC,[4]; isolate BFSA150,> 8 µg/mL
same,MIC,[4]; isolate BFSA151,> 8 µg/mL
same,MIC,[4]; isolate BFSA152,> 8 µg/mL
same,MIC,[4]; isolate BFSA153,> 8 µg/mL
same,MIC,[4]; isolate BFSA155,> 8 µg/mL
COC(=O)[C@H]1[C@H]2C[C@@H]3c4[nH]c5cc(OC)ccc5c4CCN3C[C@H]2C[C@@H](OC(=O)c2cc(OC)c(OC)c(OC)c2)[C@@H]1OC [Reserpine],solubility at 2 h,[5],7.81 µM
"CCP(=O)(CC)CC [C3, triethylphosphine oxide]",MIC,S. aureus MW2 [1],> 128 µg/mL
CC(C)(C)c1ccc(S(=O)(=O)/C=C/C#N)cc1 [Bay11-7085],OD420 in TrxR enzymatic assay,"S. aureus TrxR; subscreen, after a 30 min incubation period, DMSO 0.483 ± 0.121",0.1094
same,MIC,"S. aureus MW2 [1]; Staphylococcus aureus, read-out: MIC",4 µg/mL
same,MIC,A. baumannii 17978,64 µg/mL
same,MIC,P. aeruginosa PA14,> 64 µg/mL
same,MIC,K. pneumoniae ATCC 77326,> 64 µg/mL
same,MIC,Enterobacter (EAE 2625),> 64 µg/mL
same,MIC,E. faecium ATCC E007,32 µg/mL
CC(C)(C)c1ccc(S(=O)(=O)/C=C/CO)cc1 [D26],TrxR enzymatic inhibitory activity (in words),S. aureus TrxR,"demonstrated inhibitory activity but required higher concentrations than AU1, AU5, or auranofin"
same,anti-S. aureus activity (in words),S. aureus MW2 [1],not effective S. aureus inhibitors
"O=P(c1ccccc1)(c1ccccc1)c1ccccc1 [C4, Triphenylphosphine oxide]",MIC,S. aureus MW2 [1],> 128 µg/mL
